Values of other authors in patent US20150276574A1, “CELL ANALYSIS METHOD” (SYSMEX CORPORATION, priority 2014, published 2015).
Like-named read-outs stand apart in the source and are kept apart here.

In the case of `CCC(O)C(=O)O` (centres unmarked) [2-hydroxybutyric acid], the “Solubility in 100 g of water at 20° C.” value (100 g of water, 20° C.) is listed as at least 5 g.
For `O=C(O)CCCC(=O)O` [glutaric acid], the “Solubility in 100 g of water at 20° C.” value (100 g of water, 20° C.) is listed as 43 g.
For `O=C(O)/C=C\C(=O)O` [maleic acid], the “Solubility in 100 g of water at 20° C.” value (100 g of water, 20° C.) is listed as 44 g.
For `CC(C)=CC(=O)O` [3-methylcrotonic acid], the “Solubility in 100 g of water at 20° C.” value is listed as at least 2 g.
In the case of `O=C(O)CC(O)C(=O)O` (centres unmarked) [malic acid], the “Solubility in 100 g of water at 20° C.” value (100 g of water, 20° C.) is given as 5 g.
For aminobutanoic acid, the “Solubility in 100 g of water at 20° C.” value (100 g of water, 20° C.) is listed as at least 5 g.
For `NC(=O)NCCC[C@H](N)C(=O)O` [citrulline], the “Solubility in 100 g of water at 20° C.” value (100 g of water, 20° C.) is given as 20 g.
For `CC1=CC(=O)OC1=O` [citraconic anhydride], the “Solubility in 100 g of water at 20° C.” value (100 g of water, 20° C.) is given as at least 10 g.
